Test results: publication PMC2361651 (British Journal of Cancer, 2005)
Read-outs that look alike come from different tables or passages of the source.

Test: Plasma pharmacokinetics of SU5416 and metabolites in Phase I patients (HPLC UV)
Format: in vivo, human
Settings: for Vd / AUC(0-t) / clearance / half-life / Cmax / AUC: human; for half-life: read-out: T1/2λz (converted); for Cmax: read-out: Cmax
Method: Samples were taken prior to treatment infusion, 15 min into the infusion, at completion of the infusion and then at 5, 10, 20, 30, 45, 60, 120 and 240 min following the infusion. […] At the designated times, 4.0 ml of blood were collected into a lithium heparin tube, gently inverted and placed on ice to maintain the sample at 2–8°C. All samples were immediately centrifuged at 6000 r.p.m. at 4°C for 10 min, the supernatant divided between two 1.5 ml Nalgene cryovials and snap frozen in liquid nitrogen. Separated plasma samples were subsequently stored at −70°C until analysis.
Pharmacokinetic analysis was performed using a fully validated HPLC UV method ([Stopeck et al, 2002]). Plasma samples, standards (25–2000 ng ml^−1) and quality controls spiked with internal standards were extracted with acetonitrile. Following centrifugation, drying and reconstitution in 200 μl mobile phase, 20 μl were analysed by HPLC UV. Chromatography was carried out using a C18 analytical column, with a gradient mobile phase containing acetonitrile and 10 mM ammonium formate at pH 2.6. The flow rate was 0.8 ml min^−1 and the run-time 21 min. Detection was via UV absorption at a wavelength of 440 nm. The accuracy of the assay, reflected in relative error of measured concentration to theoretical (prepared) concentrations, was between 0.9 and 5.6% for all quality control samples.
Pharmacokinetic parameters were evaluated using WinNonLin Software®.

[1] = in vivo, iv, 145 mg m^−2, individual patients, twice weekly i.v. infusion, dose 145 mg m^−2, cycle 1inj8
[2] = in vivo, iv, 145 mg m^−2, individual patients, twice weekly i.v. infusion, dose 145 mg m^−2, cycle 2inj8
[3] = in vivo, iv, individual patients, twice weekly i.v. infusion, dose 145 → 190 mg m^−2, cycle 2inj1
[4] = in vivo, iv, individual patients, twice weekly i.v. infusion, dose 145 → 190 mg m^−2, cycle 2inj8
[5] = in vivo, iv, individual patients, twice weekly i.v. infusion, dose 145 → 190 mg m^−2, cycle 3inj2
[6] = plasma, iv, 48 mg m^−2, individual patients, twice weekly i.v. infusion, dose 48 mg m^−2, cycle 1inj2
[7] = plasma, iv, 48 mg m^−2, individual patients, twice weekly i.v. infusion, dose 48 mg m^−2, cycle 1inj8
[8] = plasma, iv, 48 mg m^−2, individual patients, twice weekly i.v. infusion, dose 48 mg m^−2, cycle 2inj8
[9] = plasma, iv, 65 mg m^−2, individual patients, twice weekly i.v. infusion, dose 65 mg m^−2, cycle 1inj2
[10] = plasma, iv, 65 mg m^−2, individual patients, twice weekly i.v. infusion, dose 65 mg m^−2, cycle 1inj3
[11] = plasma, iv, 65 mg m^−2, individual patients, twice weekly i.v. infusion, dose 65 mg m^−2, cycle 1inj8
[12] = plasma, iv, 85 mg m^−2, individual patients, twice weekly i.v. infusion, dose 85 mg m^−2, cycle 1inj2

Cc1cc(C)c(/C=C2\C(=O)Nc3ccccc32)[nH]1 [SU5416, Z-3-[(2,4-dimethylpyrrol-5-yl)methylidenyl]-2-indolinone]
average increase in drug clearance (day 4 vs day 25, five of the nine patients dosed at the same level on both days): 22% | dose linearity of kinetics (dose range 48–145 mg m^−2, initial assessment and day 25): linear kinetics | Vd (in vivo, iv, 48 mg m^−2, individual patients, twice weekly i.v. infusion, dose 48 mg m^−2, cycle 1inj2, read-out: Vz (observed)): 142 L | AUC(0-t) (in vivo, iv, 48 mg m^−2, individual patients, twice weekly i.v. infusion, dose 48 mg m^−2, cycle 1inj8): 816 ng·h/mL | clearance (in vivo, iv, 85 mg m^−2, individual patients, twice weekly i.v. infusion, dose 85 mg m^−2, cycle 1inj8, read-out: CL (observed) (converted)): 2520 mL/min | half-life (in vivo, iv, 145 mg m^−2, individual patients, twice weekly i.v. infusion, dose 145 mg m^−2, cycle 1inj2): 52.2 min | AUC(0-t) [1]: 4430 ng·h/mL | Cmax [1]: 3920 ng/mL | half-life [1]: 34.2 min | AUC(0-t) [2]: 1780 ng·h/mL | clearance (in vivo, iv, 145 mg m^−2, individual patients, twice weekly i.v. infusion, dose 145 mg m^−2, cycle 2inj8, read-out: CL (observed) (converted)): 3730 mL/min | Cmax [2]: 1340 ng/mL | half-life [2]: 43.2 min | Vd (in vivo, iv, 145 mg m^−2, individual patients, twice weekly i.v. infusion, dose 145 mg m^−2, cycle 2inj8, read-out: Vz (observed)): 233 L | AUC(0-t) [3]: 6450 ng·h/mL | clearance (in vivo, iv, individual patients, twice weekly i.v. infusion, dose 145 → 190 mg m^−2, cycle 2inj1, read-out: CL (observed) (converted)): 817 mL/min | Cmax [3]: 4000 ng/mL | half-life [3]: 46.2 min | Vd (in vivo, iv, individual patients, twice weekly i.v. infusion, dose 145 → 190 mg m^−2, cycle 2inj1, read-out: Vz (observed)): 54 L | AUC(0-t) [4]: 5040 ng·h/mL | clearance (in vivo, iv, individual patients, twice weekly i.v. infusion, dose 145 → 190 mg m^−2, cycle 2inj8, read-out: CL (observed) (converted)): 1320 mL/min | Cmax [4]: 3340 ng/mL | half-life [4]: 43.2 min | Vd (in vivo, iv, individual patients, twice weekly i.v. infusion, dose 145 → 190 mg m^−2, cycle 2inj8, read-out: Vz (observed)): 82 L | AUC(0-t) [5]: 7170 ng·h/mL | clearance (in vivo, iv, individual patients, twice weekly i.v. infusion, dose 145 → 190 mg m^−2, cycle 3inj2, read-out: CL (observed) (converted)): 733 mL/min | Cmax [5]: 6520 ng/mL | half-life [5]: 45 min | Vd (in vivo, iv, individual patients, twice weekly i.v. infusion, dose 145 → 190 mg m^−2, cycle 3inj2, read-out: Vz (observed)): 48 L | clearance (in vivo, range over the 25 evaluable patients, read-out: Plasma clearance (CL)): 767 to 3580 mL/min | Vd (in vivo, range over the 25 evaluable patients, read-out: volume of distribution (Vd)): 39 to 215 L | AUC (in vivo, at 145 mg m^−2): 3720 ± 930 ng·h/mL | AUC (in vivo, at 190 mg m^−2 in patients escalated from 145 mg m^−2 after 2 weeks): 3610 ± 183 ng·h/mL | Cmax [6]: 1740 ng/mL | half-life [6]: 32.4 min | Vd (plasma, iv, 48 mg m^−2, individual patients, twice weekly i.v. infusion, dose 48 mg m^−2, cycle 1inj2, read-out: Vz (observed)): 69 L | AUC(0-t) [7]: 630 ng·h/mL | clearance (plasma, iv, 48 mg m^−2, individual patients, twice weekly i.v. infusion, dose 48 mg m^−2, cycle 1inj8, read-out: CL (observed) (converted)): 2080 mL/min | Cmax [7]: 2060 ng/mL | half-life [7]: 36.6 min | Vd (plasma, iv, 48 mg m^−2, individual patients, twice weekly i.v. infusion, dose 48 mg m^−2, cycle 1inj8, read-out: Vz (observed)): 109 L | AUC(0-t) [8]: 498 ng·h/mL | clearance (plasma, iv, 48 mg m^−2, individual patients, twice weekly i.v. infusion, dose 48 mg m^−2, cycle 2inj8, read-out: CL (observed) (converted)): 2630 mL/min | Cmax [8]: 1630 ng/mL | half-life [8]: 34.2 min | Vd (plasma, iv, 48 mg m^−2, individual patients, twice weekly i.v. infusion, dose 48 mg m^−2, cycle 2inj8, read-out: Vz (observed)): 131 L | AUC(0-t) [9]: 1500 ng·h/mL | clearance (plasma, iv, 65 mg m^−2, individual patients, twice weekly i.v. infusion, dose 65 mg m^−2, cycle 1inj2, read-out: CL (observed) (converted)): 1070 mL/min | Cmax [9]: 4370 ng/mL | half-life [9]: 27 min | AUC(0-t) [10]: 566 ng·h/mL | clearance (plasma, iv, 65 mg m^−2, individual patients, twice weekly i.v. infusion, dose 65 mg m^−2, cycle 1inj3, read-out: CL (observed) (converted)): 3170 mL/min | Cmax [10]: 2070 ng/mL | half-life [10]: 12 min | Vd (plasma, iv, 65 mg m^−2, individual patients, twice weekly i.v. infusion, dose 65 mg m^−2, cycle 1inj3, read-out: Vz (observed)): 55 L | AUC(0-t) [11]: 1310 ng·h/mL | clearance (plasma, iv, 65 mg m^−2, individual patients, twice weekly i.v. infusion, dose 65 mg m^−2, cycle 1inj8, read-out: CL (observed) (converted)): 1230 mL/min | Cmax [11]: 4100 ng/mL | half-life [11]: 43.8 min | Vd (plasma, iv, 65 mg m^−2, individual patients, twice weekly i.v. infusion, dose 65 mg m^−2, cycle 1inj8, read-out: Vz (observed)): 78 L | AUC(0-t) [12]: 1810 ng·h/mL | clearance (plasma, iv, 85 mg m^−2, individual patients, twice weekly i.v. infusion, dose 85 mg m^−2, cycle 1inj2, read-out: CL (observed) (converted)): 1320 mL/min | Cmax [12]: 2340 ng/mL | half-life [12]: 23.4 min
